Assay: xn = mol fraction of the nth substance listed

OC1OC[C@@H](O)[C@H](O)[C@H]1O (some centres not stated) + CCCCCCCCCCCCCCCC[N+](C)(C)C.[Br-] + O
viscosity [mPa·s], 100 kPa
Conditions	298.15 K	308.15 K	318.15 K
x2 = 7.19e-06, x1 = 0.001926	0.934	0.772	0.642
x2 = 7.19e-06, x1 = 0.002323	0.941	0.779	0.647
x2 = 7.19e-06, x1 = 0.002648	0.948	0.784	0.651
x2 = 7.2e-06, x1 = 0.0009003	0.914	0.756	0.629
x2 = 7.2e-06, x1 = 0.001314	0.922	0.763	0.634
x2 = 7.2e-06, x1 = 0.001634	0.928	0.768	0.638
x2 = 1.438e-05, x1 = 0.002366	0.948	0.784	0.651
x2 = 1.438e-05, x1 = 0.002756	0.957	0.791	0.656
x2 = 1.439e-05, x1 = 0.001528	0.931	0.77	0.639
x2 = 1.439e-05, x1 = 0.001964	0.94	0.777	0.645
x2 = 1.44e-05, x1 = 0.0009094	0.918	0.759	0.63
x2 = 1.44e-05, x1 = 0.001186	0.923	0.764	0.634
x2 = 2.157e-05, x1 = 0.002446	0.955	0.79	0.654
x2 = 2.157e-05, x1 = 0.002688	0.961	0.795	0.658
x2 = 2.158e-05, x1 = 0.00199	0.945	0.782	0.647
x2 = 2.159e-05, x1 = 0.001338	0.93	0.77	0.637
x2 = 2.159e-05, x1 = 0.001717	0.939	0.777	0.643
x2 = 2.16e-05, x1 = 0.0009887	0.923	0.763	0.632

CCCCCC[n+]1ccn(C)c1.O=[N+]([O-])c1cn[n-]c1 + CCCCCCCCCCCCCC[P+](CCCCCC)(CCCCCC)CCCCCC.O=S(=O)([N-]S(=O)(=O)C(F)(F)F)C(F)(F)F
Conditions	viscosity [mPa·s]
283.15 K, 100 kPa, x2 = 0.899	820

CCCCCCCC[N+]1(C)CCCC1.O=S(=O)([N-]S(=O)(=O)C(F)(F)F)C(F)(F)F + CCCCOC(C)=O
298.15 K, 100 kPa
Conditions	electrical conductivity [S/m]	viscosity [mPa·s]
x2 = 0.2414	0.145	–
x2 = 0.2589	–	51.3
x2 = 0.6824	0.353	–
x2 = 0.7923	0.355	–
x2 = 0.8427	0.326	–

C=C[n+]1ccn(CCCC)c1.NCCCC[C@H](N)C(=O)[O-] + O
101.3 kPa
Conditions	electrical conductivity [S/m]	viscosity [mPa·s]
293.15 K, x1 = 0.3	–	8.51
293.15 K, x1 = 0.5	–	90.4
293.15 K, x1 = 0.9	–	1909
293.15 K, x1 = 1	–	10700
303.15 K, x1 = 0.5	2.81	69.3
303.15 K, x1 = 0.9	1.13	1664
303.15 K, x1 = 1	0.133	6900
308.15 K, x1 = 0.1	2.16	–
313.15 K, x1 = 0.3	2.99	4.43
313.15 K, x1 = 0.5	3.31	51.34
323.15 K, x1 = 0.5	3.88	40.64
333.15 K, x1 = 0.9	–	750
343.15 K, x1 = 0.5	–	36.74
343.15 K, x1 = 0.9	–	223
353.15 K, x1 = 0.1	–	1.39
353.15 K, x1 = 0.3	–	2.03

Reference: the CheMixHub ionic liquid set
